The values below come from US20130217132A1, “METHODS, COMPOSITIONS AND USE FOR ENHANCING CHEMICAL TOLERANCE BY MICROORGANISMS” (priority 2009, published 2013).

Assay [1] concerns pBTL-1 Control (blank vector) culture. Put plainly: Aerobic growth (specific growth, final OD600) in MOPS minimal media with inhibitor, control. The assay is classed as cell-based, E. coli. Conditions: aerobic growth in 1 g/L furfural. The procedure: Certain experiments described herein were performed in E. coli BW25113 recA-, with the kanamycin resistance gene removed.
Cultures were grown in 10 ml MOPS minimal media, 100 μg carbenicillin/ml, and either 1 g furfural/1 supplemented, 2 g HMF/1, or 4 g acetate/1, in 15 ml conical tubes at 37° C. The optical density of 1 ml culture was measured with a spectrophotometer at 600 nm. A natural log transformation of the data was then calculated and then a regression line was fit to the data to calculate specific growth, which is […] to the culture doubling time. The blank vector, pBTL-1, served as the control. The lpcA gene was cloned into the pBTL-1 using standard cloning techniques and primers designed to amplify the gene from template DNA.

The test system of assay [2] is pyruvate dehydrogenase (PDH) complex. The settings on record: 0.12 g/L furfural; cited from earlier work.
Assay [3] deals with BW25113 ArecA transformed with the blank vector (pBTL-1). Put plainly: MIC assay of furfural, blank vector strain. The assay is classed as cell-based, E. coli. The settings on record: for MIC of furfural: blank vector, FIG. 18B. As to the method:
In one exemplary method, assays were performed to determine minimum inhibitory concentration (MIC) of ethanol, furfural and acetate for BW25113 and MG1655 E. coli strains. […] Cells from each strain were inoculated from the same optical density into a total of 100 μL of varying furfural concentrations in a minimal media, for example using MOPS. Cell growth in the first 24 hr or 48 hr in the presence of furfural was monitored. The left bar in each pair for each indicated strain represents a first concentration of furfural that inhibited bacterial growth after 24 hr. The right bar for each strain represents the first concentration that inhibited growth after 48 hr. The MIC reads were the average of triplicates (n=3), and error bars represent standard deviation. […] ArecA signifies strains where the gene has been knocked out as previously described.
The minimum inhibitory concentration (MIC) of furfural of MG1655 and BW25113 with or without lpcA overexpression was determined. MIC assays were performed as described in Example 13. […] MIC reads were average of triplicates (n=3), and error bars represent standard deviation. The SDS-PAGE gel image in FIG. 17C represents LPS level of the cells indicated above the gel image (duplicate of each cell sample was presented). LPS was extracted from the indicated cells grown to exponential phase. Loading of LPS the SDS-PAGE gel was normalized to the cell number. The gel was stained for visualization after desired separation of LPS was obtained.
In another exemplary method, MIC was determined when MG1655 and BW25113 strains were fed with various carbon sources. MIC assays were performed in the presence of furfural. Glucose, Xylose or Ribose was supplemented with a minimal media for cell growth. […] MICs were read at the indicated time (24 hr or 48 hr), the average of triplicates was presented and error bars represent standard deviation. ‘Blank vector’ refers to the pBTL-1 vector, which served as the control. […]

What is called MIC is the least concentration at which growth counts as inhibited. Take `O=Cc1ccco1` [furfural, furan-2-carbaldehyde]: the “Final OD600 (24 hr)” value in assay [1] was 0.586. Also, in assay [1] (n=3), the “Specific Growth” value was 0.111 h⁻¹. For the same molecule, in assay [2], the activity reduction result is recorded as “more than 80%”. In addition, in assay [3] (Escherichia coli, BW25113, read-out: MIC of furfural), the minimal inhibitory concentration (MIC) is 500 µg/mL. For the same molecule, the MIC of furfural in assay [3] (glucose as carbon source) and in assay [3] (xylose as carbon source) was 500 µg/mL throughout.
